Entries after “also recorded” stand apart in the source; their conditions may differ. Like-named read-outs stand apart in the source and are kept apart here.
Experiments:
Format in all cases: cell-based, human
[1] = test system: collagen and thrombin activated platelets; test: cells
Description: (§1) Platelet isolation was performed as described.^10 Briefly, 10 milliliters (mL) blood was collected in 2 mL anticoagulant ACD (80 mmol/L trisodium citrate, 52 mmol/L citric acid and 180 mmol/L glucose). Platelet rich plasma was obtained by centrifuging whole blood for 15 minutes at 200 g. Platelets were spun down at 11,500× gravity for 2 minutes using a microfuge. The platelet pellet was resuspended and washed twice with 10 mmol/L HEPES, 137 mmol/L NaCl, 2.7 mmol/L KCl, 2 mmol/L MgCl2, 5 mmol/L glucose and 0.5 mg/mL BSA, adjusted at pH 6.6); before each centrifugation step, 100 μL ACD was added to each mL resuspended platelets. Finally, platelets were resuspended in HEPES buffer at pH 7.4. Platelet count was adjusted at 2×10^8 platelets/mL. For measurement of the intracellular Ca^2+ concentration ([Ca^2+]i), platelets were loaded with Fura-2 (3 μmol/L) during 45 minutes at 37° C., prior to isolation.
Platelet activation was performed at 37° C. at a concentration of 10^7 platelets/mL in a volume of 0.5 mL under continuous stirring in the presence of 3 mmol/L CaCl2. Platelet agonists used were thrombin (5 nmol/L) plus collagen (10 μg/mL) or ionomycin (1 μmol/L). The effect of different inhibitors was studied by pre-treatment of platelets with the various agents for 30 minutes before starting the activation procedure. For the effects of high extracellular [K^+], platelet suspensions were diluted 20-fold to a concentration of […] in a modified HEPES buffer, referred to as HEPES/KCl buffer (10 mmol/L HEPES, 19.7 mmol/L NaCl, 120 mmol/L KCl, 2 mmol/L MgCl2, 5 mmol/L glucose and 0.5 mg/mL BSA, pH 7.4), activated and assayed for thrombin generation as described before. In some experiments, HEPES buffer was used in which 120 mmol/L NaCl was replaced by 120 mmol/L choline chloride (10 mmol/L HEPES, 17 mmol/L NaCl, 120 mmol/L choline chloride, 2.7 mmol/L KCl, 2 mmol/L MgCl2, 5 mmol/L glucose and 0.5 mg/mL BSA, pH 7.4), referred to as HEPES/Choline buffer.
(§2) Platelet procoagulant activity was assayed as described in more detail elsewhere.^9 Briefly, after activation of 10^7 platelets/mL with collagen (10 μg/mL) and thrombin (4 nmol/L) for 10 minutes, samples were taken and diluted to 10^6 platelets/mL in HEPES buffer containing 3 mmol/L CaCl2 and 0.5 mg/mL BSA. The samples were incubated with 0.2 nmol/L factor Xa and 2 nmol/L factor Va for 1 minute at 37° C. Thrombin formation was initiated by addition of 1 μmol/L prothrombin and arrested after 2 minutes by addition of 10 mmol/L EDTA. Thrombin was measured using the chromogenic substrate S2238.
FIG. 2. illustrates the effect of potassium channel inhibitors on collagen plus thrombin induced platelet procoagulant activity. Platelets at 10^7 ml^−1 were preincubated with various inhibitors for 30 minutes followed by activation with collagen (10 μg/ml) plus thrombin (4 nmol/L) for 10 minutes. Samples from these incubations were diluted 10-fold in HEPES buffer containing 3 mmol/L CaCl2 and subsequently analyzed for prothrombinase activity (A) or percentage of annexin-positive cells (B) as described in the Materials and Methods section above. Valinomycin was added 5 minutes prior to activation of the platelets (to avoid long term effects of this ionophore). Black bars: absence of valinomycin; hatched bars: presence of valinomycin. […] Student's t-test was used to compare data in the presence and absence of valinomycin.

[2] = test system: collagen plus thrombin activated platelets; test: Flow cytometry, binding of FITC-conjugated annexin A5 (PS exposure)
Description: as §1
Platelet activation was performed at 37° C. at a concentration of 10^7 platelets/mL in a volume of 0.5 mL under continuous stirring in the presence of 3 mmol/L CaCl2. Platelet agonists used were thrombin (5 nmol/L) plus collagen (10 μg/mL) or ionomycin (1 μmol/L). […]
Samples for flow cytometry were taken simultaneously with samples for the prothrombinase assay from the platelet incubations after 10 minutes activation. To measure PS exposure, samples were diluted 10-fold in HEPES buffer containing 3 mmol/L CaCl2 and incubated with FITC-conjugated Annexin A5 (final concentration 10 nmol/L) for 5 minutes and analyzed for light scatter and fluorescence by a Coulter Epics XL-MLC™ flow cytometer. Light scatter and fluorescence channels were set at logarithmic gain. Scatter parameters and fluorescence intensities were obtained from 10,000 platelets and analyzed off-line using WinMDI version 2.8 software (http://facs.scripps.edu/software.html). Ionomycin activated platelets were used to set a marker for fluorescence intensity of annexin-positive platelets to measure the percentage of annexin-positive platelets after the various incubation procedures. […]

[3] = test system: collagen plus thrombin activated platelets; test: Measurement of [Ca2+]i of Fura-2-loaded platelets in suspension
Description: as §1
Platelets (5×10^7/mL) were incubated with K^+ channel inhibitors for 5 minutes, followed by the addition of tirofiban (5 μg/mL) and Ca^2+ (3 mmol/L) and incubated for an additional 5 minutes under stirring conditions. Collagen (10 μg/mL) plus thrombin (5 nmol/L) were then added simultaneously. Changes in [Ca^2+]i of Fura-2-loaded platelets were measured under continuous stirring by dual excitation fluorometry in an SLM-Aminco 8100 spectrofluorimeter (SLM Instruments). Ratio values of fluorescence at 340 and 380 nm excitation, obtained 5 minutes after activation with collagen plus thrombin, were converted to levels of [Ca^2+]i as described.^14 Experiments were performed in triplicate at 37° C.

[4] = test system: platelets from a patient with Scott syndrome; test: Prothrombinase activity of platelets from a patient with Scott syndrome; conditions: valinomycin 3 μmol/L; collagen plus thrombin stimulation; FIG. 5
Description: For experiments with platelets from a patient with Scott syndrome, freshly obtained citrated blood from the patient and a control was shipped by airmail and platelets were isolated and used for experiments immediately upon arrival (approx 24 hours after blood donation).
as §2
In FIG. 5, the effect of valinomycin on collagen plus thrombin induced procoagulant activity of platelets from a patient with Scott syndrome is shown. Prothrombinase activities, expressed as nmol/L thrombin formed per minute, were determined after activation with collagen (10 μg/ml) plus thrombin (4 nmol/L) in the absence (black bars) and presence (hatched bars) of valinomycin (3 μmol/L). Data are mean values±1 S.D. (n=6).

[5] = test system: platelets, collagen plus thrombin induced aggregation; test: Platelet aggregation (Chronolog aggregometer)
Description: (§3) Aggregation was measured at 37° C. in 450 μL samples of a platelet suspension of 2×10^8/mL using an automated model 400 Chronolog aggregometer (Chronolog Corporation, Chicago, USA). After stirring for 2 minutes at 300 rpm, CaCl2 (3 mmol/L) was added, 1 minute later followed by simultaneous addition of 10 μg/mL collagen and 4 nmol/L thrombin. The resulting aggregation was recorded for 5 minutes after which 50 μL ATP-reagent (Boehringer Mannheim ATP Bioluminescence Assay Kit HS II) was added to quantify the release reaction.

[6] = test system: platelets, collagen plus thrombin induced release of ATP; test: Platelet release reaction (ATP bioluminescence)
Description: as §3

[7] = test system: platelets, tetracaine-induced PS exposure; test: Tetracaine-induced prothrombinase activity
[8] = test system: platelets, tetracaine-induced PS exposure; test: Tetracaine-induced binding of FITC-conjugated annexin A5
[9] = collagen 10 μg/mL plus thrombin 4 nmol/L, concentration as given in row

iberiotoxin (QFTDVDCSVSKECWSVCKDLFGVDRGKCMGKKCRCYQ; UniProt P24663 1-37, looked up)
effect on collagen plus thrombin-induced procoagulant (prothrombinase) activity, in words ([1]; iberiotoxin 200 nmol/L, apamin 500 nmol/L): without effect

CC(C)[C@@H]1NC(=O)[C@H](C)OC(=O)[C@@H](C(C)C)NC(=O)[C@@H](C(C)C)OC(=O)[C@H](C(C)C)NC(=O)[C@H](C)OC(=O)[C@@H](C(C)C)NC(=O)[C@@H](C(C)C)OC(=O)[C@H](C(C)C)NC(=O)[C@H](C)OC(=O)[C@@H](C(C)C)NC(=O)[C@@H](C(C)C)OC1=O [valinomycin]
reversal of the inhibition of the procoagulant response by high extracellular [K+] ([1]; addition of valinomycin, data not shown): not reversed | reversal of the inhibitory effect of quinine on procoagulant response ([1]; valinomycin 3 μmol/L, HEPES buffer, FIGS. 2A and B): partially abolished | reversal of the inhibition of procoagulant response caused by clotrimazol and charybdotoxin ([1]; valinomycin 3 μmol/L, HEPES buffer, FIGS. 2A and B (prothrombinase and annexin)): completely reversed | procoagulant response of platelets in the absence of a stimulus ([1]; valinomycin itself): did not cause a procoagulant response | reversal of the inhibition by clotrimazol and charybdotoxin in HEPES/Choline ([2]; presence of valinomycin, HEPES/Choline buffer, annexin A5 binding, FIG. 4): virtually annihilated | Δ[Ca2+]i with valinomycin in clotrimazol-preincubated platelets ([3]; clotrimazol 10 μmol/L plus valinomycin, 5 minutes after collagen plus thrombin): 326 ± 34 nmol/L | procoagulant response (prothrombinase activity) of Scott syndrome platelets, in words [4]: significant increase; also recorded: partially restored

C=C[C@H]1CN2CC[C@H]1C[C@H]2[C@H](O)c1ccnc2ccc(OC)cc12.Cl [quinine, quinine hydrochloride]
Aggregation % of control (±S.D.) [5, 9]: 40.0 ± 3.0 % of control | inhibition of the aggregation ([5]; collagen plus thrombin induced): approximately 60% | Release (ATP) % of control (±S.D.) [6, 9]: 90.1 ± 4.1 % of control | effect on the release, in words ([6]; collagen plus thrombin induced): only a minor effect

Clc1ccccc1C(c1ccccc1)(c1ccccc1)n1ccnc1 [clotrimazol, 1-[(2-chlorophenyl)diphenylmethyl]-1H-imidazole]
inhibition at 10 µM ([1]; Homo sapiens, Platelet, read-out: inhibition of the prothrombinase activity of collagen and thrombin activated platelets): 46 ± 13% | extent of annexin binding (mean fluorescence intensity) of the residual PS positive platelets [2]: remains at the same level | number of PS-exposing (annexin-positive) platelets [2]: decreased | Aggregation % of control (±S.D.) [5]: 90.0 ± 2.8 % of control | effect on aggregation or release, in words ([5]; collagen plus thrombin induced, aggregation and ATP release together): Neither high extracellular [K^+], nor the presence of clotrimazol or charybdotoxin showed an appreciable effect | Release (ATP) % of control (±S.D.) [6]: 91.3 ± 5.0 % of control | Δ[Ca2+]i ([3]; 5 minutes after stimulation with collagen plus thrombin, clotrimazol 10 μmol/L, charybdotoxin 20 nmol/L, control 364±18): 275 ± 10 nmol/L | reduction of the increase in [Ca2+]i versus absence of inhibitors ([3]; clotrimazol 10 μmol/L): 24% | inhibition of tetracaine-induced prothrombinase activity [7]: neither clotrimazol nor charybdotoxin could inhibit | inhibition of tetracaine-induced binding of FITC-conjugated annexin A5 [8]: neither clotrimazol nor charybdotoxin could inhibit
